Results on 1 compound are retold here after patent publication US8557272B2, “Device for local and/or regional delivery employing liquid formulations of therapeutic agents” (Cordis Corporation, priority 2004, dated 2013).

The nature of test [1]: MVP randomized clinical trial, angiographic and clinical outcome. It is filed as in vivo, human. Particulars: probucol given alone, compared to placebo. The text has this:
It was not possible to determine with angiography alone whether probucol acted via inhibition of tissue hyperplasia or improvement in vascular remodeling. […] In addition, the invention enables the skilled practitioner to use probucol in conjunction with other percutaneous coronary interventions such as stenting if it is deemed appropriate.
The present invention concerns the IVUS substudy from the MVP restenosis trial. MVP was a double-blind placebo-controlled randomized clinical trial with four study groups. The protocol was approved by the Montreal Heart Institute institutional review board. The MVP study design, inclusion and exclusion criteria have been previously described (N Engl J Med 1997; 365-372). Briefly, patients referred for elective coronary angioplasty were evaluated at least 30 days prior to their scheduled procedure. Eligible patients were asked to provide written informed consent. Patients were eligible if they were scheduled to undergo standard balloon angioplasty on at least one native coronary artery and had at least one de novo target lesion with luminal narrowing of fifty percent or more by caliper measurements.
Beginning thirty days prior to scheduled angioplasty, patients were randomly assigned to receive either probucol alone, multivitamins alone, the combination of probucol and multivitamins, or placebo. Probucol 500 mg or matched placebo was administered twice daily. The multivitamin complex, consisting of vitamin E 700 IU, vitamin C 500 mg and beta-carotene 30,000 IU, or matched placebo was also administered in one tablet twice daily. […] The sequence of contrast injections with the exact degree of angulation was recorded and used for every angiogram. Coronary arteriograms (pre-, post-procedure, and final follow-up) were analyzed together using the Coronary Measurement System (CMS), as previously reported. […] Patients were readmitted for follow-up coronary angiography at five to seven months. […]

The nature of test [2]: MVP IVUS substudy after balloon angioplasty. The class given is in vivo, human. The text has this: Serial intravascular ultrasound (IVUS) examinations have been performed in a consecutive series of patients involved in the MVP trial. By providing tomographic views of coronary arteries with high resolution, IVUS allows quantitative assessment of changes in arterial lumen and wall dimensions. We were therefore able in this study to determine the pathophysiology of coronary restenosis after balloon angioplasty in patients systematically undergoing follow-up IVUS examination and determine the effect of probucol on tissue hyperplasia and vascular remodeling after coronary angioplasty. The present invention concerns the IVUS substudy from the MVP restenosis trial. […] Briefly, patients referred for elective coronary angioplasty were evaluated at least 30 days prior to their scheduled procedure. […] The sequence of contrast injections with the exact degree of angulation was recorded and used for every angiogram. Coronary arteriograms (pre-, post-procedure, and final follow-up) were analyzed together using the Coronary Measurement System (CMS), as previously reported. […] Patients were readmitted for follow-up coronary angiography at five to seven months. […] IVUS imaging was monitored by an experienced cardiologist, but the angioplasty operator was blinded to ultrasound results to avoid altering standard balloon angioplasty practice. […]

The test system of a further test is LDL. Kind of test: LDL peroxidation lag phase ex vivo (diene conjugates after copper ions). Details: species or system human. Particulars: treatment for one month; preliminary results. The text has this:
Dietary intervention and smoking habits were similar in all groups. Probucol may simply be a more powerful antioxidant than the combination of vitamins. To this regard, preliminary results from the continuous spectrophotometric monitoring of diene conjugates in LDL after the addition of copper ions to the isolated lipoprotein ex vivo (Free Radic Res Commun 1989; 6:67-75) of MVP patients are noteworthy.

As for `CC(C)(Sc1cc(C(C)(C)C)c(O)c(C(C)(C)C)c1)Sc1cc(C(C)(C)C)c(O)c(C(C)(C)C)c1` [probucol, 4,4′-([1-methylethylidene)bis(thio)]bis-[2,6-bis(1,1-dimethylethyl)phenol]], in test [1], the “reduction of angiographic lumen loss” value is given as “sixty-eight percent”, the “reduction of restenosis rate per segment” value is listed as “forty-seven percent” and the “reduction of the need for repeat angioplasty at 6 month” value was “fifty-eight percent”. In addition, the “reduction in lumen loss assessed by IVUS” value in test [2] (compared to non-probucol treated patients) is on record as 0.79 mm^2. In addition, the “reduction in lumen loss assessed by IVUS” value in test [2] (probucol given alone compared to the placebo group only) was determined as 1.06 mm^2. Also, in the test with LDL, the “protection against LDL oxidation (lag phase for LDL peroxidation)” value was “significantly greater protection against LDL oxidation than vitamins alone or the combination of probucol and vitamins”.
